Laboratory results reported in article PMC12238723, “Phase I Clinical Trial of CVL218, a Novel PARP1/2 Inhibitor, in Patients with Advanced Solid Tumors” (MedComm, 2025).

Tested on: patients with advanced solid tumors
Assay: Treatment-related adverse events (CTCAE v5.0), phase I dose escalation
Type: in vivo
From the text: This study was a single‐arm, dose‐escalation phase I trial conducted in Sun Yat‐sen University Cancer Center in China. This study assessed CVL218 in patients with histologically or cytologically confirmed advanced solid tumors who were in PD after standard therapeutic regimens or lacked standard treatment options. Inclusion criteria included: age 18–75 years; with at least one measurable and evaluable target lesion per Response Evaluation Criteria in Solid Tumors 1.1 (RECIST 1.1); ECOG performance status of 0 or 1; adequate hematological, renal, cardiac, and hepatic functions and a life expectancy ≥12 weeks. Key exclusion criteria included prior usage of PARP inhibitors; allergic to the research drug or its components; with active, unstable systemic diseases or active, uncontrolled infection; a history of other malignancies within 5 years, and pregnant or lactating women.
CVL218 was administered orally, and this dose‐escalation trial included nine dose levels: 100 mg QD (50 mg BID), 200 mg QD (100 mg BID), 400 mg QD (200 mg BID), 700 mg QD (350 mg BID), 1000 mg QD (500 mg BID), 1200 mg QD (600 mg BID), 1400 mg QD (700 mg BID), 1700 mg QD (850 mg BID), and 2000 mg QD (1000 mg BID). Patients enrolled in the study received a single oral dose on the first day, followed by continuous multiple dosing (twice a day taking 12 h apart) after 72 h, with the treatment cycle lasting 4 weeks. The period during which patients received a single dose is designated as cycle 0 (C0), lasting 72 h. After this period, patients begin multiple dosing, referred to as cycle 1 (C1). An initial accelerated titration design was employed for the three lowest dose groups, and the “3+3” design was applied starting with the 300 mg BID cohort.
The primary objectives were to assess safety and tolerability as well as to determine the MTD, DLT, and dose recommended for further study. DLT was defined as any of the following events occurring during cycle 0 (including 72 h wash‐out period after a single dose) and cycle 1 per Common Terminology Criteria for Adverse Events (CTCAE) version 5.0: grade 4 anemia; grade 4 neutropenia; grade 3 neutropenia with fever ≥38.5°C; grade 4 thrombocytopenia; grade 3 thrombocytopenia associated with bleeding; grade ≥2 neurotoxicity; any other grade ≥3 nonhematological toxicities (excluding alopecia). The secondary objectives were to assess the PK and preliminary efficacy of CVL218.
Subjects who received at least one dose of CVL218 with postadministration safety records were included in safety analysis set. Subjects who received at least one dose of CVL218 with at least one evaluable PK parameter were included in PK analysis set. Per‐protocol set were used for efficacy analysis. Descriptive statistics of safety were presented per CTCAE v5.0. The PK parameters T max and T 1/2 were shown as the median (min, max) and mean ± SD, respectively. A two‐sided p < 0.05 was considered to indicate statistical significance. Statistical analysis was performed by using GraphPad prism 8.0.2 and R‐4.3.3.

## CNCc1ccc(-c2cc3cc(F)cc(C(N)=O)c3o2)cc1.Cl [CVL218]
50 mg BID, ALL
  Infusion site pain: 0 n (%)
  WBC count increased: 0 n (%)
50 mg BID, ≥G3
  ALT increased: 0 n (%)
  AST increased: 0 n (%)
  Abdominal distension: 0 n (%)
  Abdominal pain: 0 n (%)
  Abdominal pain upper: 0 n (%)
  Amylase increased: 0 n (%)
  Anemia: 0 n (%)
  Any AE related to study drug: 0 n (%)
  Asthenia: 0 n (%)
  Blood creatinine increased: 0 n (%)
  Blood system disorders: 0 n (%)
  Blood triglycerides increased: 0 n (%)
  Blood urea increased: 0 n (%)
  Cardiac disorders: 0 n (%)
  Chest discomfort: 0 n (%)
  Constipation: 0 n (%)
  Decreased appetite: 0 n (%)
  Diarrhea: 0 n (%)
  Dizziness: 0 n (%)
  Erectile dysfunction: 0 n (%)
  Gastrointestinal disorders: 0 n (%)
  General disorders: 0 n (%)
  Gingival bleeding: 0 n (%)
  Granulocyte count increased: 0 n (%)
  Headache: 0 n (%)
  Hypoalbuminemia: 0 n (%)
  Infusion site pain: 0 n (%)
  Laboratory test disorders: 0 n (%)
  Limb discomfort: 0 n (%)
  Lipase increased: 0 n (%)
  Metabolic disorders: 0 n (%)
  Musculoskeletal discomfort: 0 n (%)
  Musculoskeletal disorders: 0 n (%)
  Nausea: 0 n (%)
  Nervous system disorders: 0 n (%)
  Neutrophil count decreased: 0 n (%)
  Neutrophil count increased: 0 n (%)
  Palpitations: 0 n (%)
  Protein urine present: 0 n (%)
  Proteinuria: 0 n (%)
  Rash: 0 n (%)
  Renal & urinary disorders: 0 n (%)
  Renal failure: 0 n (%)
  Reproductive disorders: 0 n (%)
  Skin disorders: 0 n (%)
  Urinary occult blood positive: 0 n (%)
  Vomiting: 0 n (%)
  WBC count decreased: 0 n (%)
  WBC count increased: 0 n (%)
100 mg BID, ALL
  Infusion site pain: 0 n (%)
  WBC count increased: 0 n (%)
100 mg BID, ≥G3
  ALT increased: 0 n (%)
  AST increased: 0 n (%)
  Abdominal distension: 0 n (%)
  Abdominal pain: 0 n (%)
  Abdominal pain upper: 0 n (%)
  Amylase increased: 0 n (%)
  Anemia: 0 n (%)
  Any AE related to study drug: 0 n (%)
  Asthenia: 0 n (%)
  Blood creatinine increased: 0 n (%)
  Blood system disorders: 0 n (%)
  Blood triglycerides increased: 0 n (%)
  Blood urea increased: 0 n (%)
  Cardiac disorders: 0 n (%)
  Chest discomfort: 0 n (%)
  Constipation: 0 n (%)
  Decreased appetite: 0 n (%)
  Diarrhea: 0 n (%)
  Dizziness: 0 n (%)
  Erectile dysfunction: 0 n (%)
  Gastrointestinal disorders: 0 n (%)
  General disorders: 0 n (%)
  Gingival bleeding: 0 n (%)
  Granulocyte count increased: 0 n (%)
  Headache: 0 n (%)
  Hypoalbuminemia: 0 n (%)
  Infusion site pain: 0 n (%)
  Laboratory test disorders: 0 n (%)
  Limb discomfort: 0 n (%)
  Lipase increased: 0 n (%)
  Metabolic disorders: 0 n (%)
  Musculoskeletal discomfort: 0 n (%)
  Musculoskeletal disorders: 0 n (%)
  Nausea: 0 n (%)
  Nervous system disorders: 0 n (%)
  Neutrophil count decreased: 0 n (%)
  Neutrophil count increased: 0 n (%)
  Palpitations: 0 n (%)
  Protein urine present: 0 n (%)
  Proteinuria: 0 n (%)
  Rash: 0 n (%)
  Renal & urinary disorders: 0 n (%)
  Renal failure: 0 n (%)
  Reproductive disorders: 0 n (%)
  Skin disorders: 0 n (%)
  Urinary occult blood positive: 0 n (%)
  Vomiting: 0 n (%)
  WBC count decreased: 0 n (%)
  WBC count increased: 0 n (%)
200 mg BID, ALL
  Infusion site pain: 1 (100) n (%)
  WBC count increased: 0 n (%)
200 mg BID, ≥G3
  ALT increased: 0 n (%)
  AST increased: 0 n (%)
  Abdominal distension: 0 n (%)
  Abdominal pain: 0 n (%)
  Abdominal pain upper: 0 n (%)
  Amylase increased: 0 n (%)
  Anemia: 0 n (%)
  Any AE related to study drug: 0 n (%)
  Asthenia: 0 n (%)
  Blood creatinine increased: 0 n (%)
  Blood system disorders: 0 n (%)
  Blood triglycerides increased: 0 n (%)
  Blood urea increased: 0 n (%)
  Cardiac disorders: 0 n (%)
  Chest discomfort: 0 n (%)
  Constipation: 0 n (%)
  Decreased appetite: 0 n (%)
  Diarrhea: 0 n (%)
  Dizziness: 0 n (%)
  Erectile dysfunction: 0 n (%)
  Gastrointestinal disorders: 0 n (%)
  General disorders: 0 n (%)
  Gingival bleeding: 0 n (%)
  Granulocyte count increased: 0 n (%)
